Data taken from paper PMC5025041 (Journal of chromatography. A, 2015).
Like-named read-outs stand apart in the source and are kept apart here.

Key:
[1] = human, in vivo
[2] = human, in vivo; remark: listed apart in the source
[3] = system: P-glycoprotein (Pgp); details: not told; cited from earlier work
[4] = subject 8 dosed with O-DVX, with indinavir therapy, 1 hr and 4 hrs
[5] = system: Pgp; details: in vitro models; cited from earlier work
[6] = system: CYP3A4; details: cited from earlier work

Structure (SMILES): CN(C)CC(c1ccc(O)cc1)C1(O)CCCCC1 (centres unmarked) [O-DVX, O-desmethylvenlafaxine]
- peak height ratio S- to R-enantiomer in plasma [1]: 0.50-15.2
- S/R ratio of peak height in plasma ([2]; 1 h): 0.83
- S/R ratio of peak height in plasma ([2]; 4 h): 0.98
- substrate of the drug transporter P-glycoprotein (Pgp) [3]: substrates
- S/R ratio of peak height in plasma [4]: remains less than one

Structure (SMILES): COc1ccc(C(CN(C)C)C2(O)CCCCC2)cc1 (centres unmarked) [VX, venlafaxine]
- substrate of the drug transporter P-glycoprotein (Pgp) [3]: substrates

Structure (SMILES): CC(C)(C)NC(=O)[C@@H]1CN(Cc2cccnc2)CCN1C[C@@H](O)C[C@@H](Cc1ccccc1)C(=O)N[C@H]1c2ccccc2C[C@H]1O [indinavir]
- inhibition of Pgp [5]: potent inhibitor

Structure (SMILES): CC(=O)N1CCN(c2ccc(OCC3COC(Cn4ccnc4)(c4ccc(Cl)cc4Cl)O3)cc2)CC1 (centres unmarked) [ketoconazole]
- reduction of N-desmethyl VX formation [6]: 42%
